10 compounds from patent US8618107B2 (Gilead Connecticut, Inc., priority 2010, dated 2013) can be followed below.

The target in data set [1] is Btk (Homo sapiens (Human), UniProt Q06187). Description: standard biochemical Btk Kinase Assay (Example 901).
Excerpt: Determination of IC50 values can be accomplished using conventional techniques known in the art. In general, an IC50 can be determined by measuring the activity of a given enzyme in the presence of a range of concentrations of the inhibitor under study. The experimentally obtained values of enzyme activity then are plotted against the inhibitor concentrations used. […] Analogously, other inhibitory concentrations can be defined through appropriate determinations of activity.
For data set [2], the system named is CD86 surface expression on CD19+/7AAD- mouse splenocytes stimulated with IgM. Description: CD86 Inhibition Assay. It is filed as cell-based. Particulars: Splenocyte; total mouse splenocytes (Balb/c), IgM stimulation 24 hr.
Description: Following the 24 hr incubation, cells are transferred to conical bottom clear 96-well plates and pelleted by centrifugation at 1200×g×5 min. […] Cells are sorted on a BD FACSCalibur and gated on the CD19^+/7AAD^− population. The levels of CD86 surface expression on the gated population is measured versus test compound concentration.

Chain of Btk (Q06187 whole entry): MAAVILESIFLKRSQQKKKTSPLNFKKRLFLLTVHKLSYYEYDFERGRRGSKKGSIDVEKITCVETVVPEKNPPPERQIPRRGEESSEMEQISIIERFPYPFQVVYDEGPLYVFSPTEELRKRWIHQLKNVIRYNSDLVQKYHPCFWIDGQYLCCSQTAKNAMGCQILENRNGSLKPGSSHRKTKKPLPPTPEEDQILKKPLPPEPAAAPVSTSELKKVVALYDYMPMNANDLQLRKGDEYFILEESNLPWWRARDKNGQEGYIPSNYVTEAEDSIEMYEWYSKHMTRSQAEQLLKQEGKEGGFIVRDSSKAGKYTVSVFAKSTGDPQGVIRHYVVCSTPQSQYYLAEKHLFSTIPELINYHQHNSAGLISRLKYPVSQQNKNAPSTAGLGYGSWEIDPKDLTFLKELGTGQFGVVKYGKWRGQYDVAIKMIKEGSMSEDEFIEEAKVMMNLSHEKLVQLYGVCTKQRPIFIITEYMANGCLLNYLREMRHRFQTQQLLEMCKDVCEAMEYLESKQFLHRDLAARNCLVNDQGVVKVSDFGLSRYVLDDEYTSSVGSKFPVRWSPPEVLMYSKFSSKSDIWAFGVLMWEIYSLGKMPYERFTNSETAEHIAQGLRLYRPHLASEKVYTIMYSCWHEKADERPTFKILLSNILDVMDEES

One may read the melting point as the temperature of the solid-liquid transition. Compound `CN1CCCC1c1ccc(Nc2cc(-c3cc(F)cc(N4CCc5c(sc6c5CCCC6)C4=O)c3CO)cn(C)c2=O)nc1` (stereo not drawn) registered a melting point of 164 to 166 °C.

What is called IC50 is the point on the concentration scale where inhibition reaches its midpoint. Low readings indicate inhibition by little substance, high ones a need for much substance. As usually defined, the EC50 is the concentration that produces a half-maximal response. A higher EC50 goes with a need for much substance. Take `Cn1cc(-c2cccc(N3CCn4c(cc5c4CCCC5)C3=O)c2CO)cc(Nc2cc3n(n2)CCOC3)c1=O` [Example 110, 2-(3-(5-(6,7-dihydro-4H-pyrazolo[5,1-c][1,4]oxazin-2-ylamino)-1-methyl-6-oxo-1,6-dihydropyridin-3-yl)-2-(hydroxymethyl)phenyl)-3,4,6,7,8,9-hexahydropyrazino[1,2-a]indol-1(2H)-one]: in data set [1] (Table 1), inhibition was half-maximal at 7.7 nM (IC50). In data set [2], this compound registered a concentration giving a half-maximal response (EC50) of 22 nM.

Compound `CN1CCN(c2ccc(Nc3cc(-c4cccc(N5CCn6c(cc7c6CCCC7)C5=O)c4CO)cn(C)c3=O)nc2)CC1` [Example 113, 2-(2-(hydroxymethyl)-3-(1-methyl-5-(5-(4-methylpiperazin-1-yl)pyridine-2-ylamino)-6-oxo-1,6-dihydropyridin-3-yl)phenyl)-3,4,6,7,8,9-hexahydropyrazino[1,2-a]indol-1(2H)-one] showed an IC50 in data set [1] (Table 1) of 5 nM. In addition, the response in data set [2] was half-maximal at 21 nM (EC50).

Consider `Cn1cc(-c2cccc(N3CCc4c(sc5c4CC(C)(C)C5)C3=O)c2CO)cc(Nc2cc3n(n2)CCOC3)c1=O` [Example 183], for which the melting point is 167 to 168 °C.

`Cn1cc(-c2cccc(N3CCc4c(sc5c4CC(C)(C)C5)C3=O)c2CO)nc(Nc2cccnc2)c1=O` [Example 193, 5-(2-(Hydroxymethyl)-3-(6,6-dimethyl-3,4,6,7-tetrahydro-5H-cyclopenta[4,5]thieno[2,3-c]pyridine-1(2H)-yl))-1-methyl-3-(pyridin-3-ylamino)pyrazin-2(1H)-one] came in with a melting point of 135 to 136 °C.

As to `Cn1cc(-c2cccc(-n3ccc4c5c(sc4c3=O)CC(C)(C)C5)c2CO)cc(Nc2ccncn2)c1=O` [Example 203, 5-(3-(6,6-Dimethyl-5,7-dihydro-5H-cyclopenta[4,5]thieno[2,3-c]pyridine-1(2H)-yl)-2-(hydroxymethyl)phenyl)-1-methyl-3-(pyrimidin-4-ylamino)pyridin-2(1H)-one], the melting point lay within 170 to 171 °C.

Take `CN1CCN(c2ccc(Nc3cc(-c4cc(F)cc(N5CCc6c(sc7c6CC(C)(C)C7)C5=O)c4CO)cn(C)c3=O)nc2)CC1` [Example 204]: the melting point was 143 to 145 °C.

For `Cn1cc(-c2cc(F)cc(N3CCn4c(cc5c4CC(C)(C)C5)C3=O)c2CO)cc(Nc2ccc(N3CCN(CCF)CC3)cn2)c1=O` [Example 273, 10-{5-Fluoro-3-[5-({5-[4-(2-fluoroethyl)piperazin-1-yl]pyridine-2-yl}amino)-1-methyl-6-oxo-1,6-dihydropyridin-3-yl]-2-(hydroxymethyl)phenyl}-4,4-dimethyl-1,10-diazatricyclo[6.4.0.0^2,6]dodeca-2(6),7-dien-9-one], half-maximal inhibition in data set [1] (Table 2) (IC50) was put at 6.35 nM. In data set [2], this compound displayed an EC50 of 3 nM.

In data set [1] (Table 2), `CCN1CCc2nc(Nc3cc(-c4cc(F)cc(N5CCn6c(cc7c6CC(C)(C)C7)C5=O)c4CO)cn(C)c3=O)ccc2C1` [Example 284, 10-(3-{5-[(6-Ethyl-5,6,7,8-tetrahydro-1,6-naphthyridin-2-yl)amino]-1-methyl-6-oxo-1,6-dihydropyridin-3-yl}-5-fluoro-2-(hydroxymethyl)phenyl)-4,4-dimethyl-1,10-diazatricyclo[6.4.0.0^2,6]dodeca-2(6),7-dien-9-one] came in with an IC50 of 2.8 nM. Moreover, in data set [2], the EC50 came to 6 nM.

`CCN1CCn2nc(Nc3cc(-c4cc(F)cc(N5CCn6c(cc7c6CC(C)(C)C7)C5=O)c4CO)cn(C)c3=O)cc2C1` [Example 285, 10-{3-[5-({5-Ethyl-4H,5H,6H,7H-pyrazolo[1,5-a]pyrazin-2-yl}amino)-1-methyl-6-oxo-1,6-dihydropyridin-3-yl]-5-fluoro-2-(hydroxymethyl)phenyl}-4,4-dimethyl-1,10-diazatricyclo[6.4.0.0^2,6]dodeca-2(6),7-dien-9-one]: the midpoint of inhibition in data set [1] (Table 2), the IC50, lay at 3.6 nM. Also, in data set [2], a half-maximal effect (EC50) was put at 11 nM.
